Measurements: patent US20230139445A1, “BACTERIAL CELLS WITH IMPROVED TOLERANCE TO DIACIDS” (priority 2016, published 2023)

Columns and labels:
[1] = tested on: Escherichia coli K-12 MG1655 knockout mutants; assay: Growth Profiler growth screening of K-12 MG1655 single, double and triple knockout mutants in glutaric or adipic acid; assay type: cell-based; details: M9 + 50 g/L adipate (neutralized)
Description: Five colonies from wild-type K-12 MG1655 and 10 individual colonies deriving from each population were inoculated into 300 μL M9+1% glucose in 96 well deepwell plates and incubated in a 300 rpm plate shaker at 37° C. The next day, cells were diluted 10× in M9+1% glucose and 30 μL was transferred into clear-bottomed 96 well half-deepwell plates (with rectangular wells) containing M9+1% glucose and M9+1% glucose+52.78 g/L glutaric acid or 55.56 g/L adipic acid, such that the final concentration of glutaric acid or adipic acid was 47.5 g/L or 50 g/L, respectively. In addition, cryogenic glycerol stocks of the overnight culture were saved in a 96 well plate format. Half deepwell plates were incubated at 37° C. with 225 rpm shaking in a Growth Profiler (Enzyscreen), with optical scans of the plates taken at 15 minute intervals. Green pixel values integrated over a 1 mm diameter circular area in each well were converted to OD600 values using a previously determined calibration between OD600 and green pixel values. […] In general, it was attempted to select three isolates per population for further analysis, and all populations were represented in the resequenced isolates.
Selected isolates from the primary screen were restruck onto LB agar from the cryogenic stock made from the overnight culture plate for the primary screen. Five K-12 MG1655 colonies and three individual colonies from each isolate were inoculated as biological replicates into a new 96 well deepwell plate containing 300 μL of M9+1% glucose, and grown overnight as for the primary screen. The next day, a cryogenic stock and half deepwell plates containing M9+1% glucose with or without glutaric acid or adipic acid were inoculated using the plate of overnight cultures, and growth was measured as described for the primary screen.
Probable important losses-of-function were determined by identifying genes across all isolates that harboured mutations, especially those occurring in multiple populations, and by the presence of at least one mutation that either generated a premature stop codon, a frameshift mutation, or the presence of an insertion element sequence within the gene. For those genes, the corresponding knockout strain from the Keio collection of single knockout mutants (where each gene is replaced with a cassette consisting of a kanamycin resistance gene flanked by FRT sites) was used as a donor strain for P1vir phage transduction. Briefly, the Keio strain was grown to early exponential phase in LB+5 mM CaCl2 and 80 μL of a P1vir stock raised on K-12 MG1655 was added. After significant lysis was observed after 1.5 to 2 hours, the lysate was filter-sterilized to remove cells and stored at 4° C. Strain K-12 MG1655 was grown overnight in LB+5 mM CaCl2) and 100 μL of the overnight culture was mixed with 100 μL of the P1vir lysate of the Keio collection mutant, and the mixture was incubated at 37° C. without shaking for 20 minutes. The entire mixture was then plated on LB agar containing 1.25 mM sodium pyrophosphate as a chelating agent and 25 μg/mL kanamycin. One colony was then restruck on LB+1.25 mM […]+25 μg/mL kanamycin plate and analyzed for presence of the Keio cassette in place of the wild-type gene by colony PCR. When further knockouts were constructed in the same strain, the Keio cassette was flipped out to generate a scar sequence such that Kan^R marker could be recycled. […]

[2] = tested on: Escherichia coli K-12 MG1655 evolved isolates and knockout mutants; assay: Biolector growth screening of evolved isolates and reconstructed (knockout) mutants in glutaric or adipic acid; assay type: cell-based
Description: Biological triplicate cultures of each strain were grown to saturation overnight in 96 well deepwell plates containing 300 μL M9+1% glucose. The next day, cells were diluted 1:10 in deionized water in a clear 96 well plate and the OD600 was measured on a BioTek plate reader. 48 well FlowerPlates containing a final volume of 1.4 mL of M9+1/o glucose (plus relevant chemical) were inoculated to OD600 0.03 (with plate reader pathlength, 200 μL volume) with the overnight culture and sealed with Breathseal film. Light backscatter intensity was monitored in a Biolector microbioreactor system at 37° C. with 1000 rpm shaking.
Each re-sequenced isolate was characterized using the Biolector system for growth at the screening concentration of chemical (47.5 g/L glutaric acid or 50 g/L adipic acid) in biological triplicates.

[3] = strain ADIP1-1, M9 + 50 g/L adipic acid (neutralized with sodium hydroxide)
[4] = strain ADIP1-9, M9 + 50 g/L adipic acid (neutralized with sodium hydroxide)
[5] = strain ADIP2-5, M9 + 50 g/L adipic acid (neutralized with sodium hydroxide)
[6] = strain ADIP2-6, M9 + 50 g/L adipic acid (neutralized with sodium hydroxide)
[7] = strain ADIP2-10, M9 + 50 g/L adipic acid (neutralized with sodium hydroxide)
[8] = strain ADIP3-2, M9 + 50 g/L adipic acid (neutralized with sodium hydroxide)
[9] = strain ADIP3-4, M9 + 50 g/L adipic acid (neutralized with sodium hydroxide)
[10] = strain ADIP3-8, M9 + 50 g/L adipic acid (neutralized with sodium hydroxide)
[11] = strain ADIP4-8, M9 + 50 g/L adipic acid (neutralized with sodium hydroxide)
[12] = strain ADIP5-2, M9 + 50 g/L adipic acid (neutralized with sodium hydroxide)
[13] = strain ADIP5-6, M9 + 50 g/L adipic acid (neutralized with sodium hydroxide)
[14] = strain ADIP6-3, M9 + 50 g/L adipic acid (neutralized with sodium hydroxide)
[15] = strain ADIP6-9, M9 + 50 g/L adipic acid (neutralized with sodium hydroxide)
[16] = strain ADIP6-10, M9 + 50 g/L adipic acid (neutralized with sodium hydroxide)
[17] = strain ADIP7-2, M9 + 50 g/L adipic acid (neutralized with sodium hydroxide)
[18] = strain ADIP7-5, M9 + 50 g/L adipic acid (neutralized with sodium hydroxide)
[19] = strain ADIP8-3, M9 + 50 g/L adipic acid (neutralized with sodium hydroxide)
[20] = strain ADIP8-7, M9 + 50 g/L adipic acid (neutralized with sodium hydroxide)
[21] = strain ADIP8-10, M9 + 50 g/L adipic acid (neutralized with sodium hydroxide)
[22] = strain MG1655-1, M9 + 50 g/L adipic acid (neutralized with sodium hydroxide)

O=C(O)CCCCC(=O)O [adipic acid]
mean growth rate μ ([1]; strain MG1655 ΔkgtP proV::kan): 0.264 h⁻¹
mean lag time tlag ([1]; strain MG1655 ΔkgtP proV::kan): 16.5 h
mean growth rate μ ([1]; strain MG1655 ΔkgtP sspA::kan): 0.117 h⁻¹
mean growth rate μ [2, 3]: 0.315 h⁻¹
mean lag time tlag [2, 3]: 16.6 h
mean growth rate μ [2, 4]: 0.274 h⁻¹
mean lag time tlag [2, 4]: 5.8 h
mean growth rate μ [2, 5]: 0.332 h⁻¹
mean lag time tlag [2, 5]: 20.1 h
mean growth rate μ [2, 6]: 0.337 h⁻¹
mean lag time tlag [2, 6]: 22.1 h
mean growth rate μ [2, 7]: 0.326 h⁻¹
mean lag time tlag [2, 7]: 20.8 h
mean growth rate μ [2, 8]: 0.295 h⁻¹
mean lag time tlag [2, 8]: 16.6 h
mean growth rate μ [2, 9]: 0.305 h⁻¹
mean lag time tlag [2, 9]: 23.3 h
mean growth rate μ [2, 10]: 0.295 h⁻¹
mean lag time tlag [2, 10]: 20.1 h
mean growth rate μ [2, 11]: 0.332 h⁻¹
mean lag time tlag [2, 11]: 6.8 h
mean growth rate μ [2, 12]: 0.401 h⁻¹
mean lag time tlag [2, 12]: 4.7 h
mean growth rate μ [2, 13]: 0.370 h⁻¹
mean lag time tlag [2, 13]: 14.4 h
mean growth rate μ [2, 14]: 0.280 h⁻¹
mean lag time tlag [2, 14]: 6.5 h
mean growth rate μ [2, 15]: 0.279 h⁻¹
mean lag time tlag [2, 15]: 6.8 h
mean growth rate μ [2, 16]: 0.284 h⁻¹
mean lag time tlag [2, 16]: 7.1 h
mean growth rate μ [2, 17]: 0.189 h⁻¹
mean lag time tlag [2, 17]: 7.6 h
mean growth rate μ [2, 18]: 0.292 h⁻¹
mean lag time tlag [2, 18]: 19.3 h
mean growth rate μ [2, 19]: 0.201 h⁻¹
mean lag time tlag [2, 19]: 6.0 h
mean growth rate μ [2, 20]: 0.206 h⁻¹
mean lag time tlag [2, 20]: 7.2 h
mean growth rate μ [2, 21]: 0.200 h⁻¹
mean lag time tlag [2, 21]: 6.8 h
mean growth rate μ [2, 22]: 0.133 h⁻¹
mean lag time tlag [2, 22]: 21.4 h
